Source: the supplement of paper PMC10883282

Legend:
Assay in all cases: relative viability vs DMSO control (72 h) (fraction); higher = more viable cells
RD-ES = test system: RD-ES
In short: (§1)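 A 5 µM positive control and 0.1% DMSO vehicle ran alongside sarcoma cell lines seeded in 384-well plates to reach 80–90% confluence. Serially diluted compound, 2.5 µl from source plates of 10 mM to 0.0002 mM, was added after 24 h, and the plates were held 72 h at 37 °C, 5% CO2. Relative viability was worked out from ATPLite readings as percent growth averaged over up to triplicate wells. The values were rescaled so that 1 is full and 0 is none.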

SW1353 = test system: SW1353
In short: as §1

HT1080 = test system: HT1080
In short: as §1

SW982 = test system: SW982
In short: as §1

KHOS-240S = test system: KHOS-240S
In short: as §1

C[C@@H](Oc1cc(-c2cnn(C3CCNCC3)c2)cnc1N)c1c(Cl)ccc(F)c1Cl [Crizotinib]
relative viability
Settings | HT1080 | KHOS-240S | RD-ES | SW982 | SW1353
0.00017 µM | 1.07 | 1.04 | 0.969 | 1.04 | 1
0.00051 µM | 1.05 | 1.05 | 0.96 | 1.03 | 1
0.00152 µM | 1.07 | 1.06 | 0.963 | 1.03 | 1.018
0.00457 µM | 1.09 | 1.05 | 0.95 | 1.05 | 0.987
0.01372 µM | 1.07 | 1.05 | 0.963 | 1.03 | 1.02
0.04115 µM | 1.07 | 1.05 | 0.972 | 1.03 | 0.996
0.1235 µM | 1.06 | 1.04 | 0.911 | 0.954 | 1.03
0.3704 µM | 1.07 | 0.992 | 0.745 | 0.628 | 1.01
1.111 µM | 1.01 | 0.771 | 0.26 | 0.328 | 0.999
3.333 µM | 0.754 | 0.566 | 0.0918 | 0.168 | 0.679
10 µM | 0.00533 | 0.0657 | 0.00543 | 0.00317 | 0.00907

CCN(c1cc(-c2ccc(CN3CCOCC3)cc2)cc(C(=O)NCc2c(C)cc(C)[nH]c2=O)c1C)C1CCOCC1 [Tazemetostat]
relative viability
Settings | HT1080 | KHOS-240S | RD-ES | SW982 | SW1353
0.00017 µM | 1.09 | 1.02 | 0.984 | 0.968 | 1.08
0.00051 µM | 1.1 | 1.031 | 1 | 0.988 | 1.04
0.00152 µM | 1.08 | 1.03 | 0.989 | 0.977 | 1.065
0.00457 µM | 1.09 | 1.03 | 0.965 | 0.98 | 1.08
0.01372 µM | 1.085 | 1.01 | 0.968 | 0.973 | 1.05
0.04115 µM | 1.07 | 1.03 | 1.01 | 1.02 | 1.09
0.1235 µM | 1.09 | 1.01 | 0.975 | 0.985 | 1.05
0.3704 µM | 1.1 | 0.9861 | 0.971 | 0.951 | 1.04
1.111 µM | 1.071 | 0.9866 | 1 | 0.958 | 1.02
3.333 µM | 1.08 | 0.975 | 0.988 | 0.926 | 1.02
10 µM | 1.01 | 0.925 | 0.98 | 0.932 | 0.991

N#Cc1ccnc(N2C(=O)CC[C@H]2C(=O)N(c2cncc(F)c2)[C@H](C(=O)NC2CC(F)(F)C2)c2ccccc2Cl)c1 [Ivosidenib]
relative viability
Settings | HT1080 | KHOS-240S | RD-ES | SW982 | SW1353
0.00017 µM | 0.987 | 1.03 | 0.948 | 1.02 | 0.966
0.00051 µM | 1.07 | 1.04 | 0.976 | 0.981 | 0.94
0.00152 µM | 1.03 | 1.04 | 1 | 0.987 | 0.976
0.00457 µM | 1.0513 | 1.057 | 0.977 | 1 | 0.935
0.01372 µM | 1.09 | 1.04 | 0.996 | 0.996 | 0.976
0.04115 µM | 1.07 | 1.046 | 0.986 | 1.01 | 0.972
0.1235 µM | 1.11 | 1.02 | 1 | 0.984 | 0.949
0.3704 µM | 1.106 | 1.03 | 1.02 | 0.966 | 0.98
1.111 µM | 1.1 | 1.02 | 0.986 | 0.975 | 0.929
3.333 µM | 1.09 | 1.022 | 0.973 | 0.982 | 0.973
10 µM | 1.05 | 0.998 | 0.9403 | 0.971 | 0.972

CO[C@H]1C[C@@H]2CC[C@@H](C)[C@@](O)(O2)C(=O)C(=O)N2CCCC[C@H]2C(=O)O[C@H]([C@H](C)C[C@@H]2CC[C@@H](O)[C@H](OC)C2)CC(=O)[C@H](C)/C=C(\C)[C@@H](O)[C@@H](OC)C(=O)[C@H](C)C[C@H](C)/C=C/C=C/C=C/1C [Rapamycin]
relative viability
Settings | HT1080 | KHOS-240S | RD-ES | SW982 | SW1353
0.00017 µM | 1.04 | 0.9934 | 0.966 | 0.919 | 0.91
0.00051 µM | 1.03 | 0.975 | 0.962 | 0.86 | 0.851
0.00152 µM | 1.02 | 0.942 | 0.868 | 0.763 | 0.825
0.00457 µM | 0.97 | 0.858 | 0.833 | 0.695 | 0.796
0.01372 µM | 0.966 | 0.809 | 0.77 | 0.634 | 0.795
0.04115 µM | 0.972 | 0.775 | 0.712 | 0.597 | 0.782
0.1235 µM | 0.932 | 0.766 | 0.665 | 0.567 | 0.747
0.3704 µM | 0.917 | 0.746 | 0.677 | 0.603 | 0.714
1.111 µM | 0.905 | 0.734 | 0.687 | 0.586 | 0.7
3.333 µM | 0.869 | 0.7183 | 0.647 | 0.597 | 0.674
10 µM | 0.851 | 0.688 | 0.611 | 0.591 | 0.683

FC(F)(F)c1ccc(CNc2ccc(Cc3c[nH]c4ncc(Cl)cc34)cn2)cn1 [Pexidartinib]
relative viability
Settings | HT1080 | KHOS-240S | RD-ES | SW982 | SW1353
0.00017 µM | 1.14 | 1.09 | 0.973 | 1.02 | 1.07
0.00051 µM | 1.12 | 1.07 | 0.99 | 1.05 | 1.03
0.00152 µM | 1.12 | 1.07 | 1.01 | 1.06 | 0.993
0.00457 µM | 1.05 | 1.08 | 1.02 | 1.07 | 1.02
0.01372 µM | 1.1 | 1.08 | 1.02 | 1.05 | 0.988
0.04115 µM | 1.1 | 1.08 | 0.982 | 1.05 | 1.01
0.1235 µM | 1.06 | 1.1 | 1.01 | 1.06 | 1
0.3704 µM | 1.08 | 1.06 | 0.998 | 1.05 | 0.975
1.111 µM | 1.05 | 0.997 | 0.977 | 1.09 | 0.897
3.333 µM | 1.065 | 1 | 0.959 | 1.07 | 0.896
10 µM | 1.02 | 0.913 | 0.969 | 1.12 | 0.85

Cc1cccc(-c2[nH]c(CNc3ccccc3F)nc2-c2ccc3ncnn3c2)n1 [Vactosertib]
relative viability
Settings | HT1080 | KHOS-240S | RD-ES | SW982 | SW1353
0.00017 µM | 1.02 | 1.02 | 0.9791 | 0.9904 | 0.904
0.00051 µM | 1 | 1.04 | 0.97 | 1.02 | 0.964
0.00152 µM | 0.967 | 1.03 | 0.974 | 0.999 | 0.89
0.00457 µM | 1.01 | 1.02 | 0.958 | 0.998 | 0.911
0.01372 µM | 1.042 | 1.03 | 0.97 | 0.9987 | 0.947
0.04115 µM | 1.01 | 1 | 0.973 | 1.03 | 0.953
0.1235 µM | 1.04 | 0.992 | 0.971 | 1.01 | 0.96
0.3704 µM | 1.05 | 0.966 | 0.964 | 0.984 | 0.946
1.111 µM | 1.02 | 0.952 | 0.945 | 1 | 0.968
3.333 µM | 1.02 | 0.885 | 0.925 | 1.02 | 0.893
10 µM | 1.01 | 0.708 | 0.865 | 0.936 | 0.875

N#CCC1(n2cc(-c3ncnc4[nH]ccc34)cn2)CN(C2CCN(C(=O)c3ccnc(C(F)(F)F)c3F)CC2)C1 [Itacitinib]
relative viability
Settings | HT1080 | KHOS-240S | RD-ES | SW982 | SW1353
0.00017 µM | 1.04 | 1.05 | 0.92 | 0.979 | 0.987
0.00051 µM | 1.02 | 1.04 | 0.949 | 0.996 | 1
0.00152 µM | 1.04 | 1.04 | 0.919 | 1.01 | 0.982
0.00457 µM | 1.01 | 1.06 | 0.956 | 1 | 0.937
0.01372 µM | 1.03 | 1.02 | 0.927 | 1.02 | 0.96
0.04115 µM | 0.991 | 1.01 | 0.913 | 0.974 | 0.939
0.1235 µM | 1.03 | 0.984 | 0.909 | 0.976 | 0.955
0.3704 µM | 1.004 | 0.999 | 0.909 | 0.956 | 0.937
1.111 µM | 0.993 | 0.97 | 0.924 | 0.983 | 0.933
3.333 µM | 1.02 | 0.95 | 0.887 | 0.93 | 0.929
10 µM | 1 | 0.923 | 0.853 | 0.928 | 0.87
